Results reported in patent US10638756B2, “Molecules having pesticidal utility, and intermediates, compositions, and processes, related thereto” (Dow AgroSciences LLC, priority 2017, dated 2020).

Key:
Format in all cases: in vivo
[1] = tested on: Beet Armyworm (Spodoptera exigua); assay: Bioassay on Beet Armyworm (BAW), 128-well diet tray assay; conditions: Spodoptera exigua, 168 h; 50 μg/cm^2 on artificial diet, second instar larvae, five to seven days; read-out: BAW % Control (or Mortality) rating
[2] = tested on: Cabbage Looper (Trichoplusia ni); assay: Bioassay on Cabbage Looper (CL), 128-well diet tray assay; conditions: 168 h, 50 μg/cm^2 on artificial diet, second instar larvae, five to seven days, read-out: CL % Control (or Mortality) rating
Method in brief: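 One to five second-instar larvae per well on artificial diet surface-treated with 50 μg/cm^2 test molecule (applied in 90:10 acetone-water, dried). Held 5–7 days at 25° C, 14:10 light-dark; percent mortality recorded per well and averaged over eight wells.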

[3] = tested on: Yellow Fever Mosquito (Aedes aegypti); conditions: about 1 day-old larvae, 3 days, scored on mortality
Description: Certain molecules disclosed in this document were tested against YFM using procedures described in the following paragraph. In the reporting of the results, the “GPA & YFM Rating Table” was used (See Table Section).
Master plates containing 400 μg of a molecule dissolved in 100 μL of dimethyl sulfoxide (DMSO) (equivalent to a 4000 ppm solution) are used. A master plate of assembled molecules contains 15 μL per well. To this plate, 135 μL of a 90:10 water/acetone mixture is added to each well. A robot (Biomek® NXP Laboratory Automation Workstation) is programmed to dispense 15 μL aspirations from the master plate into an empty 96-well shallow plate (“daughter” plate). There are 6 reps (“daughter” plates) created per master. The created “daughter” plates are then immediately infested with YFM larvae.
The day before plates are to be treated, mosquito eggs are placed in Millipore water containing liver powder to begin hatching (4 g. into 400 mL). After the “daughter” plates are created using the robot, they are infested with 220 μL of the liver powder/larval mosquito mixture (about 1 day-old larvae). After plates are infested with mosquito larvae, a non-evaporative lid is used to cover the plate to reduce drying. Plates are held at room temperature for 3 days prior to grading. After 3 days, each well is observed and scored based on mortality. The results are indicated in the table entitled “Table ABC: Biological Results” (See Table Section).

SMILES | mortality at 50 µg/cm2 [1] | mortality at 50 µg/cm2 [2] | YFM % Control (or Mortality) rating [3]
O=C(NNc1cccc(C(F)(F)F)c1)c1ccc(/C(F)=C/C(c2cc(Cl)c(Cl)c(Cl)c2)C(F)(F)F)cc1C(F)(F)F (stereo not shown) [F3, (Z)-4-(1,4,4,4-Tetrafluoro-3-(3,4,5-trichlorophenyl)but-1-en-1-yl)-2-(trifluoromethyl)-N′-(3-(trifluoromethyl)phenyl)benzohydrazide] | 50 to 100% | 50 to 100% | A (80-100)
O=C(NNc1c(F)cccc1Cl)c1ccc(/C(F)=C/C(c2cc(Cl)c(Cl)c(Cl)c2)C(F)(F)F)cc1C(F)(F)F (stereo not shown) [F1, (Z)—N′-(2-chloro-6-fluorophenyl)-4-(1,4,4,4-tetrafluoro-3-(3,4,5-trichlorophenyl)but-1-en-1-yl)-2-(trifluoromethyl)benzohydrazide] | 50 to 100% | 50 to 100% | A (80-100)
CN(NC(=O)c1ccc(/C(F)=C/C(c2ccc(Cl)c(Cl)c2)C(F)(F)F)cc1C(F)(F)F)c1ncccn1 (stereo not shown) [F8, (Z)-4-(3-(3,4-Dichlorophenyl)-1,4,4,4-tetrafluorobut-1-en-1-yl)-N′-methyl-N′-(pyrimidin-2-yl)-2-(trifluoromethyl)benzohydrazideazide] | 50 to 100% | 50 to 100% | A (80-100)
O=C(NNc1ncccn1)c1ccc(/C(F)=C/C(c2cc(Cl)cc(Cl)c2)C(F)(F)F)cc1C(F)(F)F (stereo not shown) [F56, (Z)-4-(3-(3,5-Dichlorophenyl)-1,4,4,4-tetrafluorobut-1-en-1-yl)-N′-(pyrimidin-2-yl)-2-(trifluoromethyl)benzohydrazide] | 50 to 100% | 50 to 100% | A (80-100)
CN(NC(=O)c1ccc(/C(F)=C/C(c2cc(Cl)c(Cl)c(Cl)c2)C(F)(F)F)cc1C(F)(F)F)c1ccc(C#N)cn1 (stereo not shown) [F82, (Z)—N′-(5-Cyanopyridin-2-yl)-N′-methyl-4-(1,4,4,4-tetrafluoro-3-(3,4,5-trichlorophenyl)but-1-en-1-yl)-2-(trifluoromethyl)benzohydrazide] | 50 to 100% | 50 to 100% | A (80-100)
N#Cc1ccc(/C(F)=C/C(c2cc(Cl)c(Cl)c(Cl)c2)C(F)(F)F)cc1C(F)(F)F (stereo not shown) [C25, (Z)-4-(1,4,4,4-Tetrafluoro-3-(3,4,5-trichlorophenyl)but-1-en-1-yl)-2-(trifluoromethyl)benzonitrile] | 50 to 100% | 50 to 100% | A (80-100)
O=C(NNc1ccc(F)cc1)c1ccc(/C(F)=C/C(c2cc(Cl)c(Cl)c(Cl)c2)C(F)(F)F)cc1C(F)(F)F (stereo not shown) [F52] | 50 to 100% | 50 to 100% | A (80-100)
C=CCN(NC(=O)c1ccc(/C(F)=C/C(c2cc(Cl)c(Cl)c(Cl)c2)C(F)(F)F)cc1C(F)(F)F)c1ncccn1 (stereo not shown) [F152, (Z)—N′-Allyl-N′-(pyrimidin-2-yl)-4-(1,4,4,4-tetrafluoro-3-(3,4,5-trichlorophenyl)but-1-en-1-yl)-2-(trifluoromethyl)benzohydrazide] | 50 to 100% | 50 to 100% | A (80-100)
CN(NC(=O)c1ccc(/C(F)=C/C(c2cc(Cl)c(Cl)c(Cl)c2)C(F)(F)F)cc1C(F)(F)F)c1ccccc1 (stereo not shown) [F11, (Z)—N′-Methyl-N′-phenyl-4-(1,4,4,4-tetrafluoro-3-(3,4,5-trichlorophenyl)but-1-en-1-yl)-2-(trifluoromethyl)benzohydrazide] | 50 to 100% | 50 to 100% | A (80-100)
N#Cc1cccc(NNC(=O)c2ccc(/C(F)=C/C(c3cc(Cl)c(Cl)c(Cl)c3)C(F)(F)F)cc2C(F)(F)F)c1 (stereo not shown) [F100, (Z)—N′-(3-Cyanophenyl)-4-(1,4,4,4-tetrafluoro-3-(3,4,5-trichlorophenyl)but-1-en-1-yl)-2-(trifluoromethyl)benzohydrazide] | 50 to 100% | 50 to 100% | A (80-100)
CN(NC(=O)c1ccc(/C(F)=C/C(c2cc(Cl)c(Cl)c(Cl)c2)C(F)(F)F)cc1Br)c1ncccn1 (stereo not shown) [F102, (Z)-2-Bromo-N′-methyl-N′-(pyrimidin-2-yl)-4-(1,4,4,4-tetrafluoro-3-(3,4,5-trichlorophenyl)but-1-en-1-yl)benzohydrazide] | 50 to 100% | 50 to 100% | A (80-100)
COc1ccc(NNC(=O)c2ccc(/C(F)=C/C(c3cc(Cl)c(Cl)c(Cl)c3)C(F)(F)F)cc2C(F)(F)F)cc1 (stereo not shown) [F126, (Z)—N′-(4-Methoxyphenyl)-4-(1,4,4,4-tetrafluoro-3-(3,4,5-trichlorophenyl)but-1-en-1-yl)-2-(trifluoromethyl)benzohydrazide] | 50 to 100% | 50 to 100% | A (80-100)
COc1ccccc1NNC(=O)c1ccc(/C(F)=C/C(c2cc(Cl)c(Cl)c(Cl)c2)C(F)(F)F)cc1C(F)(F)F (stereo not shown) [F14, (Z)—N′-(2-Methoxyphenyl)-4-(1,4,4,4-tetrafluoro-3-(3,4,5-trichlorophenyl)but-1-en-1-yl)-2-(trifluoromethyl)benzohydrazide] | 50 to 100% | 50 to 100% | A (80-100)
O=C(NNc1ncccn1)c1ccc(/C(F)=C/C(c2ccc(Br)c(C(F)(F)F)c2)C(F)(F)F)cc1C(F)(F)F (stereo not shown) [F78, (Z)-4-(3-(4-Bromo-3-(trifluoromethyl)phenyl)-1,4,4,4-tetrafluorobut-1-en-1-yl)-N′-(pyrimidin-2-yl)-2-(trifluoromethyl)benzohydrazide] | 50 to 100% | 50 to 100% | A (80-100)
CN(NC(=O)c1ccc(/C(F)=C/C(c2ccc(Br)c(Cl)c2)C(F)(F)F)cc1C(F)(F)F)c1ncccn1 (stereo not shown) [F125, (Z)-4-(3-(4-Bromo-3-chlorophenyl)-1,4,4,4-tetrafluorobut-1-en-1-yl)-N′-methyl-N′-(pyrimidin-2-yl)-2-(trifluoromethyl)benzohydrazide] | 50 to 100% | 50 to 100% | 
O=C(NNc1c(Cl)c(Cl)nc(Cl)c1Cl)c1ccc(/C(F)=C/C(c2cc(Cl)c(Cl)c(Cl)c2)C(F)(F)F)cc1C(F)(F)F (stereo not shown) [F131, (Z)—N′-(Perchloropyridin-4-yl)-4-(1,4,4,4-tetrafluoro-3-(3,4,5-trichlorophenyl)but-1-en-1-yl)-2-(trifluoromethyl)benzohydrazide] | 0% | 0% | 
O=C(NNc1ccccc1F)c1ccc(/C(F)=C/C(c2cc(Cl)c(Cl)c(Cl)c2)C(F)(F)F)cc1C(F)(F)F (stereo not shown) [F28, (Z)—N′-(2-fluorophenyl)-4-(1,4,4,4-tetrafluoro-3-(3,4,5-trichlorophenyl)but-1-en-1-yl)-2(trifluoromethyl)benzohydrazide] | 50 to 100% | 50 to 100% | 
O=C(NNCCCC(F)(F)F)c1ccc(/C(F)=C/C(c2cc(Cl)c(Cl)c(Cl)c2)C(F)(F)F)cc1C(F)(F)F (stereo not shown) [F103, (Z)-4-(1,4,4,4-tetrafluoro-3-(3,4,5-trichlorophenyl)but-1-en-1-yl)-N′-(4,4,4-trifluorobutyl)-2-(trifluoromethyl)benzohydrazide] | 50 to 100% | 50 to 100% | 
CN(NC(=O)c1ccc(/C(F)=C/C(c2cc(Cl)c(Cl)c(Cl)c2)C(F)(F)F)cc1C(F)(F)F)c1nccc(C(F)(F)F)n1 (stereo not shown) [F91, (Z)—N′-methyl-4-(1,4,4,4-tetrafluoro-3-(3,4,5-trichlorophenyl)but-1-en-1-yl)-2-(trifluoromethyl)-N′-(4-(trifluoromethyl)pyrimidin-2-yl)benzohydrazide] | 50 to 100% | 50 to 100% | 
CN(NC(=O)c1ccc(/C(F)=C/C(c2cc(Cl)c(Cl)c(Br)c2)C(F)(F)F)cc1C(F)(F)F)c1ncccn1 (stereo not shown) [F171, (Z)-4-(3-(3-Bromo-4,5-dichlorophenyl)-1,4,4,4-tetrafluorobut-1-en-1-yl)-N′-methyl-N′-(pyrimidin-2-yl)-2-(trifluoromethyl)benzohydrazide] | 50 to 100% | 50 to 100% | 
N#CCN(NC(=O)c1ccc(/C(F)=C/C(c2cc(Cl)c(Cl)c(Cl)c2)C(F)(F)F)cc1C(F)(F)F)c1ncccn1 (stereo not shown) [F189, (Z)—N′-(cyanomethyl)-N′-(pyrimidin-2-yl)-4-(1,4,4,4-tetrafluoro-3-(3,4,5-trichlorophenyl)but-1-en-1-yl)-2-(trifluoromethyl)benzohydrazide] | 50 to 100% | 50 to 100% | 
CC(C)CCN(C)NC(=O)c1ccc(/C(F)=C/C(c2cc(Cl)c(Cl)c(Cl)c2)C(F)(F)F)cc1C(F)(F)F (stereo not shown) [F160, (Z)—N′-Isopentyl-N′-methyl-4-(1,4,4,4-tetrafluoro-3-(3,4,5-trichlorophenyl)but-1-en-1-yl)-2-(trifluoromethyl)benzohydrazide] | 50 to 100% | 50 to 100% | 
